From ChEMBL document CHEMBL5331108, “Design and Synthesis of 4-Fluorophenyl-5-methylene-2(5H)-furanone Derivatives as Potent Quorum Sensing Inhibitors” (J Med Chem, 2023) come the findings set out here.

Holding throughout (format): functional
Assay [1] relates to Escherichia coli. The assay can be described thus: Antibacterial activity against penicillin-susceptible Escherichia coli ATCC25922 assessed as inhibition of bacterial growth incubated for 20 hrs by CLSI protocol based microdilution method. (Dilution methods test growth across graded concentrations, often in twofold steps.)
Assay [2] concerns Pseudomonas aeruginosa. The assay can be described thus: Antibacterial activity against penicillin-susceptible Pseudomonas aeruginosa ATCC27853 assessed as inhibition of bacterial growth incubated for 20 hrs by CLSI protocol based microdilution method.
Assay [3] concerns Staphylococcus aureus. The assay can be described thus: Antibacterial activity against methicillin-resistant Staphylococcus aureus ATCC43300 assessed as inhibition of bacterial growth incubated for 20 hrs by CLSI protocol based microdilution method.
Assay [4] deals with Pseudomonas aeruginosa. Briefly: Antibacterial activity against wild type Pseudomonas aeruginosa […] CGMCC1.12483 assessed as inhibition of bacterial growth incubated for 20 hrs by CLSI protocol based microdilution method.
For assay [5], the system named is Staphylococcus aureus. Briefly: Antibacterial activity against erthromycin-susceptible Staphylococcus aureus ATCC25923 assessed as inhibition of bacterial growth incubated for 20 hrs by CLSI protocol based microdilution method.
For assay [6], the system named is Bacillus subtilis. Briefly: Antibacterial activity against penicillin-susceptible Bacillus subtilis ATCC9372 assessed as inhibition of bacterial growth incubated for 20 hrs by CLSI protocol based microdilution method.
Assay [7] has as its system Bacillus pumilus. The assay can be described thus: Antibacterial activity against penicillin-susceptible Bacillus pumilus CMCC63202 assessed as inhibition of bacterial growth incubated for 20 hrs by CLSI protocol based microdilution method.

SMILES strings stand for the structures. Converted amounts (≈) assume the structure as drawn. Where only a bound is given, the exact number is not on record here.

With `C=C1C(c2ccc(F)cc2)=C(CNC(=O)c2ccc(C)cc2)C(=O)N1CCC`, the minimum inhibitory concentration (MIC) – broadly, the lowest concentration that inhibits growth of the organism – was above 512 µg/mL in assay [1]; 256 µg/mL (≈ 676 µM) in assay [2]; above 512 µg/mL in assay [3]; 512 µg/mL (≈ 1350 µM) in assay [4]; above 512 µg/mL in assay [5]; above 512 µg/mL in assay [6]. Also, the minimal inhibitory concentration (MIC) in assay [7] came out at 512 µg/mL (≈ 1350 µM).

As for `C=C1OC(=O)C(CNC(=O)CCCCC)=C1c1ccc(F)cc1`, the MIC in assay [1] is above 512 µg/mL; in assay [2], above 512 µg/mL; in assay [3] it was 256 µg/mL (≈ 807 µM); in assay [4], above 512 µg/mL; in assay [5] it was 16 µg/mL (≈ 50.4 µM); in assay [6], 256 µg/mL (≈ 807 µM). Moreover, the MIC in assay [7] is 256 µg/mL (≈ 807 µM).

For `C=C1OC(=O)C(CNC(=O)c2cccc(F)c2)=C1c1ccc(F)cc1`, the MIC in assay [1], in assay [2], in assay [3], in assay [4], in assay [5] and in assay [6] was above 512 µg/mL in each case. Further, the MIC in assay [7] is above 512 µg/mL.

As to `C=C1C(c2ccc(F)cc2)=C(CNC(=O)c2ccc(C)cc2)C(=O)N1CC`, the MIC in assay [1] is above 512 µg/mL; in assay [2], 64 µg/mL (≈ 176 µM); in assay [3], above 512 µg/mL; in assay [4] it was 512 µg/mL (≈ 1400 µM); in assay [5] it was above 512 µg/mL; in assay [6] it was above 512 µg/mL. In addition, the MIC in assay [7] was 512 µg/mL (≈ 1400 µM).

As for `C=C1OC(=O)C(CNC(=O)c2ccccc2C)=C1c1ccc(F)cc1`, the MIC is above 512 µg/mL in assay [1]; above 512 µg/mL in assay [2]; 64 µg/mL (≈ 190 µM) in assay [3]; above 512 µg/mL in assay [4]; 32 µg/mL (≈ 94.9 µM) in assay [5]; 128 µg/mL (≈ 379 µM) in assay [6]. Further, the MIC in assay [7] is 32 µg/mL (≈ 94.9 µM).

As for `C=C1OC(=O)C(CNC(=O)c2ccc(C)cc2)=C1c1ccc(Br)cc1`, the minimum inhibitory concentration (MIC) in assay [1], in assay [2], in assay [3], in assay [4], in assay [5] and in assay [6] was above 512 µg/mL each time. For the same molecule, in assay [7], the MIC was above 512 µg/mL.

`C=C1OC(=O)C(CNC(=O)CCCCCCC)=C1c1ccc(F)cc1`: the MIC in assay [1], in assay [2], in assay [3], in assay [4], in assay [5] and in assay [6] was above 512 µg/mL throughout. Further, the MIC in assay [7] was above 512 µg/mL.

Turning to `C=C1OC(=O)C(CNC(=O)c2ccccc2Cl)=C1c1ccc(F)cc1`, the minimal inhibitory concentration (MIC) in assay [1], in assay [2], in assay [3], in assay [4], in assay [5] and in assay [6] was above 512 µg/mL each time. Moreover, in assay [7], the MIC was above 512 µg/mL.

Regarding `C=C1C(c2ccc(F)cc2)=C(CNC(=O)c2ccc(C)cc2)C(=O)N1C1CCCC1`, the MIC in assay [1] is above 512 µg/mL; in assay [2], above 512 µg/mL; in assay [3], 512 µg/mL (≈ 1270 µM); in assay [4], 512 µg/mL (≈ 1270 µM); in assay [5] it was above 512 µg/mL; in assay [6], above 512 µg/mL. For the same molecule, the MIC in assay [7] is 512 µg/mL (≈ 1270 µM).

Regarding `C=C1OC(=O)C(CNC(=O)c2ccc(C)cc2)=C1c1cccc(F)c1`, the MIC in assay [1], in assay [2], in assay [3], in assay [4], in assay [5] and in assay [6] was above 512 µg/mL in each case. The MIC in assay [7] was above 512 µg/mL.

Consider `C=C1OC(=O)C(CNC(=O)c2ccc(C)cc2)=C1c1cccc(C(F)(F)F)c1`, for which the minimal inhibitory concentration (MIC) in assay [1], in assay [2], in assay [3], in assay [4], in assay [5] and in assay [6] was above 512 µg/mL in each case. In addition, in assay [7], the MIC was above 512 µg/mL.

As for `C=C1OC(=O)C(CNC(=O)c2ccc(C)cc2)=C1c1ccccc1F`, the MIC in assay [1], in assay [2], in assay [3], in assay [4], in assay [5] and in assay [6] was above 512 µg/mL in each case. Further, the MIC in assay [7] is above 512 µg/mL.

Turning to `C=C1C(c2ccc(F)cc2)=C(CNC(=O)c2ccc(C)cc2)C(=O)N1c1cccc(Cl)c1`, the MIC is above 512 µg/mL in assay [1]; above 512 µg/mL in assay [2]; above 512 µg/mL in assay [3]; 512 µg/mL (≈ 1150 µM) in assay [4]; above 512 µg/mL in assay [5]; above 512 µg/mL in assay [6]. For the same molecule, in assay [7], the MIC amounted to 512 µg/mL (≈ 1150 µM).

Take `C=C1OC(=O)C(CNC(=O)c2ccccc2F)=C1c1ccc(F)cc1`: the MIC in assay [1] was above 512 µg/mL; in assay [2], above 512 µg/mL; in assay [3], 128 µg/mL (≈ 375 µM); in assay [4] it was above 512 µg/mL; in assay [5], above 512 µg/mL; in assay [6], above 512 µg/mL. Also, the MIC in assay [7] was above 512 µg/mL.

In the case of `C=C1OC(=O)C(CNC(=O)c2ccc(C)cc2)=C1c1cccc(Br)c1`, the MIC in assay [1], in assay [2], in assay [3], in assay [4], in assay [5] and in assay [6] was above 512 µg/mL each time. Further, in assay [7], the MIC is above 512 µg/mL.

Turning to `C=C1C(c2ccc(F)cc2)=C(CNC(=O)c2ccc(C)cc2)C(=O)N1CCCC`, the MIC in assay [1], in assay [2], in assay [3], in assay [4], in assay [5] and in assay [6] was above 512 µg/mL throughout. Further, the MIC in assay [7] was above 512 µg/mL.

Turning to `C=C1OC(=O)C(CNC(=O)c2ccc(C)cc2)=C1c1ccc(-c2ccccc2)cc1`, the MIC in assay [1], in assay [2], in assay [3], in assay [4], in assay [5] and in assay [6] was above 512 µg/mL throughout. Moreover, the MIC in assay [7] is above 512 µg/mL.

For `C=C1OC(=O)C(CNC(=O)CCCCCCCCC)=C1c1ccc(F)cc1`, the MIC was above 512 µg/mL in assay [1]; above 512 µg/mL in assay [2]; 512 µg/mL (≈ 1370 µM) in assay [3]; above 512 µg/mL in assay [4]; above 512 µg/mL in assay [5]; above 512 µg/mL in assay [6]. In addition, in assay [7], the MIC was above 512 µg/mL.

On to `C=C1OC(=O)C(CNC(=O)c2ccc(C)cc2)=C1c1ccccc1`, for which the MIC in assay [1], in assay [2], in assay [3], in assay [4], in assay [5] and in assay [6] was above 512 µg/mL each time. Moreover, the minimum inhibitory concentration (MIC) in assay [7] is above 512 µg/mL.

Consider `C=C1OC(=O)C(CNC(=O)c2cccc(Br)c2)=C1c1ccc(F)cc1`, for which the MIC in assay [1], in assay [2], in assay [3], in assay [4], in assay [5] and in assay [6] was above 512 µg/mL throughout. Moreover, in assay [7], the MIC was above 512 µg/mL.

`C=C1OC(=O)C(CNC(=O)c2ccc(C)cc2)=C1c1ccccc1Br`: the MIC in assay [1], in assay [2], in assay [3], in assay [4], in assay [5] and in assay [6] was above 512 µg/mL each time. For the same molecule, the MIC in assay [7] was above 512 µg/mL.

In the case of `C=C1C(c2ccc(F)cc2)=C(CNC(=O)c2ccc(C)cc2)C(=O)N1CCCCC`, the MIC in assay [1] was above 512 µg/mL; in assay [2] it was above 512 µg/mL; in assay [3] it was above 512 µg/mL; in assay [4], 512 µg/mL (≈ 1260 µM); in assay [5], above 512 µg/mL; in assay [6], above 512 µg/mL. Also, the MIC in assay [7] was 512 µg/mL (≈ 1260 µM).
